Values quoted from earlier work, collected in PMC5959268 (Journal of medicinal chemistry, 2016).
Where a name gives a salt, the structure may show the parent alone. *1 amine or outer side, *2 acyl side, *3 side chain or, on linkers, in order; H or OH if unused. Where no end group is shown, it is not given here. [ ]: non-standard residue; d: D form. Tyr(125I) = tyrosine labelled with iodine-125, O=C([C@H](Cc1ccc(O[*:3])c([125I])c1)N[*:1])[*:2]

What was measured:
[1] = tested on: hair regrowth; settings: aging CRF-overexpressing mice
[2] = tested on: CRF-stimulated ACTH release by cultured rat anterior pituitary cells; settings: rat pituitary cells in culture and adrenalectomized rats
[3] = molecular target: CRF-R1; settings: read-out: Kd of tracer at CRF-R1; saturation binding of radioligand

Row | Compound | hair regrowth [1] | other results
1 | CCCCN(CC)c1nc(C)nc2c1c(C)c(C)n2-c1c(C)cc(C)cc1C [antalarmin, N-butyl-N-ethyl-2,5,6-trimethyl-7-(2,4,6-trimethylphenyl)-7H-pyrrolol[2,3-d]pyrimidin-4-amine hydrochloride] | spotty results | 
2 | Nc1cc(N2CCCCC2)nc(N)[n+]1[O-] [minoxidil, 2,4-pyrimidinediamine, 6-(1-piperidinyl)-, 3-oxide] | spotty results | 
3 | [D-Phe^12,Nle^21,38]-h/rCRF(12–41) |  | potency relative to α-helical-CRF(9–41) at inhibiting release of ACTH [2]: ~ 18 times
4 | [^125ITyr^0-Glu^1]-PD-Svg YEGTSLDLTFDLLRHNLEIAKQEALKKQAAKNRLLLDTI-NH2 ([Tyr(125I)]EGTSLDLTFDLLRHNLEIAKQEALKKQAAKNRLLLDTI-NH2) |  | Kd [3]: 420 pM
